From patent US9284423B2, “Crosslinkable composition crosslinkable by real michael addition (RMA) reaction” (NUPLEX RESINS B.V., priority 2011, dated 2016)

Columns and labels:
[1] = Determination of Michael addition reactivity (Example 12): loss of X-H component in butyl acrylate/methanol at room temperature, by back-titration (GC for dimethylmalonate); assay type: physicochemical; conditions: for Relative conversion rates (relative Michael addition reactivity: initial increase in % conversion, per minute): with strong base, same method as for succinimide; for Succinimide remaining (%): strong base (tetrabutylammonium hydroxide) added, % relative to theoretical level
Description: Subsequently, the concentration of succinimide is determined as a function of time by taking samples, neutralizing with a known excess of HCl in water, and backtitration with a KOH solution. […] Succinimide concentration is expressed as % relative to the theoretical level based on used amounts.

[2] = pKa defined in aqueous environment; cited from earlier work
[3] = butyl acrylate/methanol, room temperature

## c1nc[nH]n1 [1,2,4-triazole]
[1]; [3]
  Relative conversion rates (relative Michael addition reactivity: initial increase in % conversion, per minute): 0.91 % conversion, per minute

## CC1(C)NC(=O)NC1=O [5,5-dimethylhydantoin]
[2]
  pKa: 10.2
[1]; [3]
  Relative conversion rates (relative Michael addition reactivity: initial increase in % conversion, per minute): 0.03 % conversion, per minute

## c1ccc2[nH]nnc2c1 [benzotriazole]
[2]
  pKa: 8.2
[1]; [3]
  Relative conversion rates (relative Michael addition reactivity: initial increase in % conversion, per minute): 0.29 % conversion, per minute

## CCOC(=O)CC(=O)OCC [diethylmalonate]
[2]
  pKa: 13.0

## O=C1Nc2ccccc2C1=O [isatine]
[2]
  pKa: 10.3

## C[N+](=O)[O-] [nitromethane]
[2]
  pKa: 10.2

## O=C1CCC(=O)N1 [succinimide]
[1]; in about an hour, [succinimide]/[base]=5
  Succinimide acidic protons consumed: 25%
[1]; time 3 min, [succinimide]/[base]=5, butyl acrylate/methanol, room temperature
  Succinimide remaining (%): 99%
[1]; time 30 min, [succinimide]/[base]=5, butyl acrylate/methanol, room temperature
  Succinimide remaining (%): 87%
[1]; time 60 min, [succinimide]/[base]=5, butyl acrylate/methanol, room temperature
  Succinimide remaining (%): 77%
[1]; time 120 min, [succinimide]/[base]=5, butyl acrylate/methanol, room temperature
  Succinimide remaining (%): 60%
[1]; time 180 min, [succinimide]/[base]=5, butyl acrylate/methanol, room temperature
  Succinimide remaining (%): 48%
[1]; [3]
  Relative conversion rates (relative Michael addition reactivity: initial increase in % conversion, per minute): 0.33 % conversion, per minute
[1]; without base, butyl acrylate/methanol, room temperature, two weeks
  Loss of succinimide N-H without base initiation: no significant loss

## O=c1cc[nH]c(=O)[nH]1 [uracil]
[2]
  pKa: 9.9
